{
  "source": "patent US20100028402A1",
  "about": "“NANOPARTICLE-BASED ANTICOAGULANT” (priority 2006, published 2010)",
  "key": {"[1]": {"system": "murine bone marrow myeloid precursors", "assay": "CFU-GM assay (myelosuppression)", "conditions": "FIG. 3"}, "[2]": {"system": "porcine proximal tubule epithelial cells (LLC-PK1)", "assay": "MTT and LDH cytotoxicity assays, kidney cells", "type": "cell-based", "conditions": "1.0 to 0.004 mg/mL", "method": "(§1) The cytotoxicity of AF1, AF3, C3, DF1 and NCL22 on porcine proximal tubule epithelial cells (LLC-PK1) was determined by a method that includes a 3-(4,5-Dimethyl-2-thiazolyl)-2,5-diphenyl-2H-tetrazolium bromide (MTT) reduction and lactate dehydrogenase (LDH) release assays. MTT that is a yellow water-soluble tetrazolium dye that is reduced by live cells to a water-insoluble purple formazan. The amount of formazan can be determined by solubilizing the formazan in DMSO and measuring it spectrophotometrically. Comparisons between the spectra of treated and untreated cells can give a relative estimation of cytotoxicity. (See, Alley et al. Cancer Res. 48: 589-60, 1988 which is hereby incorporated by reference in its entirety). The LDH assay is based upon LDH (a cytoplasmic enzyme that is released into the […] upon cell lysis) oxidizing lactate to pyruvate, pyruvate reacting with a tetrazolium salt INT to form formazan, and the water-soluble formazan dye being detected spectrophotometrically. Thus, the LDH assay is a measure of membrane integrity. […]\n(§2) Briefly, for assays employing porcine kidney epithelial cells, such cells were plated at […] in a 96 well plate. […] Cytotoxicity was then determined by MTT and LDH assays."}, "[3]": {"assay": "MTT and LDH cytotoxicity assays, kidney cells", "type": "cell-based, porcine", "conditions": "pig, LLC-PK1 porcine proximal tubule epithelial cells, treated 6, 24 or 48 hours, 1.0 to 0.004 mg/mL, read-out: LC50 (the source's name)", "method": "as §1, §2"}, "[4]": {"assay": "Nanoparticle dimension", "type": "physicochemical"}, "[5]": {"system": "platelets (human platelet-rich plasma)", "assay": "Platelet aggregation assay, with and without collagen", "type": "cell-based", "method": "Platelet Aggregation Assay. […] The concentration of the nanoparticle was determined by considering the following parameters: i) the solubility of the nanoparticle in a biocompatible buffer; ii) maintaining the pH within a physiological range (pH 7±0.5); iii) availability of nanoparticle; and iv) stability of the nanoparticle. […] The assay required 150 μL of test material.\nPlatelet-rich plasma (PRP) was obtained from fresh pooled human whole blood by spinning freshly drawn blood for 8 minutes at 200 g. PRP was then pooled from at least 3 different donors. It is to be noted that during phlebotomy, the first 2 mLs of blood was discarded. Further, PRP was prepared as soon as possible from the time of obtaining the blood sample and no longer than 1 hour after blood collection. PRP was kept at room temperature and was used within 4 hours of its isolation. Exposure of either the blood or PRP to cold temperatures (<20° C.) was avoided because such temperatures induce platelet aggregations.\nThree test tubes for the test sample, two tubes for the positive control and two tubes for the negative control were prepared. Twenty-five microliters of the test sample, positive control or negative control were added to the respective tubes. These samples provided data on the ability of the test nanoparticle to induced platelet aggregation. A second set of tubes were prepared for test-particles plus collagen. These set of tubes provided data on the ability of test-particles to interfere with platelet aggregation caused by collagen. For this set of studies, 25 μL of the positive control and 25 μL of the test nanoparticle was added to each “test-particles plus collagen” tube. Further, 50 μL of the negative control was added to each negative control tube and 25 μL of the positive control and 25 μL of RPMI was added to each positive control tube. In addition, one control tube with 100 μL of phosphate buffer saline (PBS) or RPMI and 25 μL of the nanoparticles was prepared to determine any potential particle interference with instrument counting procedure.\nPRP was added to the appropriate tubes, samples were briefly vortexed and then incubated with control or test sample for 15 minutes at a nominal temperature of 37° C. After the incubation period, 10 mL of Isoton II diluent was added into blood cell counter vials. Two vials were prepared for each sample replicate. Twenty microliters of PRP treated with positive control, negative control or test-nanoparticle was then added to the each vial. Vials were covered and gently inverted to mix the diluted samples. PRP was analyzed by a Z2 Particle Count and Size Analyzer (Beckman Coulter) to determine the number of active platelets. Percent Coefficient of Variation (% CV) was equal to the standard deviation divided by the mean multiplied by 100. Platelet count=(5×RC)/100=# platelets×10^9/L. Further, percent platelet aggregation (% aggregation)=Control Platelet Count−Sample Platelet Count/Control Platelet Count×100). The percent coefficient of variation for each control and test sample was within 25%. […] Percent platelet aggregation above 20% was considered to be positive (for example, test-particle induces platelet aggregation)."}, "[6]": {"system": "red blood cells (pooled normal human whole blood)", "assay": "Hemolysis assay", "type": "cell-based", "description": "Hemolysis Assay. This assay employs a protocol for quantitative colorimetric determination of hemoglobin in whole blood (total blood hemoglobin—TBH) and hemoglobin released into plasma (plasma free hemoglobin—PFH) when blood was exposed to nanoparticles. In brief, hemoglobin and its derivatives, except sulfhemoglobin, were oxidized to methemoglobin by ferricyanide in the presence of alkali. Cyanmethemoglobin (CMH) was formed from the methemoglobin by its reaction with cyanide (Drabkin's solution) and then detected by spectrophotometer set at 540 nm. The hemoglobin standard was used to build a standard curve covering the concentration range from 0.025 to 0.80 mg/mL and to prepare quality control samples at low (0.0625 mg/mL), mid (0.125 mg/mL) and high (0.625 mg/mL) concentrations to monitor assay performance. Required sample volume was 300 μL, e.g., 100 μL per test-replicate. The results expressed as percent of hemolysis were used to evaluate the acute in vitro hemolytic properties of nanoparticles.\nThe following reagents were used in the assay: cyanmethemoglobin (CMH) reagent, (StanBio, cat. # 0321-380); hemoglobin standard (StanBio, cat. # 0325-006); Ca/Mg free DPBS (Sigma, catalogue no: D8537); pooled normal human whole blood anti-coagulated with Li-heparin; poly-L-Lysine hydrobromide (MW 150 000-300 000, Sigma, cat #P1399); polyethylene glycol (av. MW 8 000, Sigma cat # P1458); and distilled water. It is contemplated that equivalent reagents from other vendors can be used.\nThe positive control was prepared by dissolving poly-L-Lysine powder to a final concentration of 1% (10 mg/mL) in sterile distilled water. […] Alternatively, 1% TritonX-100 in water was used as a positive control. […]\nWhole blood was collected in tubes containing Li-heparin as anti coagulant from at least three donors. […] The plate was then read by use of a plate reader at an absorbance of 540 nm to determine hemoglobin concentration. […] If calculated PFH concentration was below 1 mg/mL pooled whole blood was diluted with Ca^2+/Mg^2+ free DPBS to adjust total hemoglobin concentration to 10±2 mg/mL. […]"}},
  "data": [
    {"molecule": "O=C(O)C1(C(=O)O)C2c3ccc4c5c3-c3c6c7c8c9c3C53C(C(=O)O)(C(=O)O)C35C(=C4)Cc3cc4c(c-9c35)C83C(CC4)(CC7CC621)C3(C(=O)O)C(=O)O", "note": "(stereo not shown) [C3, C60(>C(COOH)2)3]", "values": [
      {"measurement": "protection of bone marrow cells from myelosuppression caused by cisplatin", "setting": "[1]; with cisplatin (50 μM)", "value": "none of the tested substituted fullerenes were able to protect the bone marrow cells"},
      {"measurement": "toxicity to kidney cells", "setting": "[2]", "value": "minimally toxic"},
      {"measurement": "CC50", "setting": "[3]", "value": 207, "unit": "µg/mL"},
      {"measurement": "dimension", "setting": "[4]", "value": 1.57, "unit": "nm"},
      {"measurement": "collagen-induced platelet aggregation in presence of compound", "setting": "[5]; compound 200 μg/mL, collagen 20 μg/mL (collagen alone greater than 60%), FIG. 4", "value": "approximately 15%"},
      {"measurement": "percent of hemolysis", "setting": "[6]; human, 3 h", "value": "less than 2%"}
    ]},
    {"molecule": "N.N.[Cl][Pt][Cl]", "note": "[cisplatin]", "values": [
      {"measurement": "myelosuppressive effect", "setting": "[1]; positive control, 50 μM", "value": "myelosuppression caused by cisplatin treatment"}
    ]},
    {"molecule": "Triton X-100", "values": [
      {"measurement": "hemolysis by positive control", "setting": "[6]", "value": "90±5", "unit": "%"},
      {"measurement": "hemolysis of the red blood cells", "setting": "[6]", "value": "greater than 80%"}
    ]},
    {"molecule": "collagen", "values": [
      {"measurement": "platelet aggregation induced", "setting": "[5]; collagen 20 μg/mL, FIG. 4", "value": "greater than 60%"},
      {"measurement": "platelet aggregation induced", "setting": "[5]; collagen 25 μg/mL, FIG. 5", "value": "greater than 80%"}
    ]},
    {"molecule": "CC(=O)Oc1ccccc1C(=O)O", "note": "[aspirin]", "values": [
      {"measurement": "effect on collagen-induced platelet aggregation", "setting": "[5]; 167 μg/mL, collagen 25 μg/mL, FIG. 5", "value": "significant reduction in collagen-induced platelet aggregation"},
      {"measurement": "dose dependence of inhibition of collagen-induced platelet aggregation", "setting": "[5]; 167, 33.4 and 16.7 μg/mL, collagen 25 μg/mL, FIG. 5", "value": "dose dependent"}
    ]}
  ]
}
